Experiment [1] addresses T1, alpha 1D adrenoceptors (Homo sapiens, UniProt P25100).
T1 construct: host or cells: CHO cells
T1 sequence (P25100 1-572): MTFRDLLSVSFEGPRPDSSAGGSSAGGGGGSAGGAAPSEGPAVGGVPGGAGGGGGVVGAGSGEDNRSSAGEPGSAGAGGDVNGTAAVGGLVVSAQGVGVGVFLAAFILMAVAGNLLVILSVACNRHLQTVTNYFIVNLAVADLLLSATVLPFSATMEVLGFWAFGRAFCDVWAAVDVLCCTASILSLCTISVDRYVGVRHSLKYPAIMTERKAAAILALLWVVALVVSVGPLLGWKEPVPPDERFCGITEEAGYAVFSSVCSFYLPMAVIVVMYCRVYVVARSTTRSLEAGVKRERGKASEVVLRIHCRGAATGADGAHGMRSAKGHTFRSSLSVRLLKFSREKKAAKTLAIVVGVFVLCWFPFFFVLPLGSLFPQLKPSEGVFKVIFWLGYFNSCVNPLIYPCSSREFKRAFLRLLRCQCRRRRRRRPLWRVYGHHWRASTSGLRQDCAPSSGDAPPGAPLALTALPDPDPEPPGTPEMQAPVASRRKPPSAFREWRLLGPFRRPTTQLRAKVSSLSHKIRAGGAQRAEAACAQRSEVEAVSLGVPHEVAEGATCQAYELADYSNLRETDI
The experiment in a line: Displacement of [3H]Prazosin binding in CHO cells (Eurofins). Conditions: 0.2 nM [3H]Prazosin, 60 min, 22° C., human recombinant, read-out: inhibition of binding of specific ligand. On the procedure: (§1) Method. The displacement by compound (II-1) of binding of selective ligands of alpha adrenergic receptors 1D and 2C (0.2 nM [^3H]Prazosin and 2 nM [^3H]RX 821002, respectively) was evaluated for 60 min at 22° C. in CHO cells expressing the human recombinant adrenoceptors (Eurofins).
Background: Displacement assays read how much labelled ligand stays bound in the presence of the test substance.

In experiment [2] the target is T2, alpha 2C adrenoceptors (Homo sapiens, UniProt P18825).
T2 construct: host or cells: CHO cells
T2 sequence (P18825 1-462): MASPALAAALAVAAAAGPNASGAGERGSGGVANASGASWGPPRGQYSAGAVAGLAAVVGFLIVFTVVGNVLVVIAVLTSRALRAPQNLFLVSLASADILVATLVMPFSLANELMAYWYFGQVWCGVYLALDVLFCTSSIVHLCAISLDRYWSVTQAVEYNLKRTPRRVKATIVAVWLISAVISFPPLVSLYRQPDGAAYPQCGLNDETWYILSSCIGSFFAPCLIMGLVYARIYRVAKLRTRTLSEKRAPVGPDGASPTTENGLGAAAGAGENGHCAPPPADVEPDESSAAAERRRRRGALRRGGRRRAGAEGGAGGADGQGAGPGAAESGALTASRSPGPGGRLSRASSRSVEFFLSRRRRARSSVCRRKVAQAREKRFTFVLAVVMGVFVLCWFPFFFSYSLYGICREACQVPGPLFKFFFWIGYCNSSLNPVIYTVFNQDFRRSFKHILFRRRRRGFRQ
The experiment in a line: Displacement of [3H]RX 821002 binding in CHO cells (Eurofins). The settings on record: 2 nM [3H]RX 821002, 60 min, 22° C., human recombinant, read-out: inhibition of binding of specific ligand. Here is the method: as §1

Experiment [3] concerns the target T3, human OCT2 (Homo sapiens, UniProt O15244).
T3 construct: expressed in transfected cells; host or cells: COS cells
T3 sequence (O15244 1-555): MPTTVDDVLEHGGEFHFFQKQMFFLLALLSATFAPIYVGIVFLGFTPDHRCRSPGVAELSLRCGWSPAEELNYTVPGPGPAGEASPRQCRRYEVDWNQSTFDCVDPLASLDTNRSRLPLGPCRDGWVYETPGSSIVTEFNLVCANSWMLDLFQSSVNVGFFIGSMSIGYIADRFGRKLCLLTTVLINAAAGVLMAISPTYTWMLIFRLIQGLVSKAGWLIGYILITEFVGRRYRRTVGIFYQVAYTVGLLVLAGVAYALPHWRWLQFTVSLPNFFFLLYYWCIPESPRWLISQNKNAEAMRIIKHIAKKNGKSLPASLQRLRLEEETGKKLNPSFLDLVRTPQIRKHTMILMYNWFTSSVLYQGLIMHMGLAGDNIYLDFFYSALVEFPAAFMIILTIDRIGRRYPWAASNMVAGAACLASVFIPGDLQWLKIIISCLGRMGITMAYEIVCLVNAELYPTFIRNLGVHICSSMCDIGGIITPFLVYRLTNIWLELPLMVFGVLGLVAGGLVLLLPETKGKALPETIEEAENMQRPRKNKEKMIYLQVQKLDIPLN
Description: OCT inhibition in transfected cells ([3H]ASP+ uptake). Type of experiment: cell-based. From the text:
Method. […] Tested concentrations: 1.10^−9; 3.10^−9; 1.10^−8; 3.10^−8; 1.10^−7; 3.10^−7; 1.10^−6; 3.10^−6 mol·L^−1.

With `COc1ccc2c(c1)C=C/C(=C/c1cc[n+](C(C)C)c3ccccc13)N2C(C)C.[I-]` [II-1, (Z)-1-isopropyl-4-((1-isopropyl-6-methoxyquinolin-2(1H)-ylidene)methyl)quinolin-1-ium iodide], the results for the inhibition at 1 µM in experiment [1] and in experiment [2] were 69% and 66%, respectively. In addition, the “IC50 less than that of D24 on human and rodent OCTs” value in experiment [3] (hOCT2 IC50 versus literature D24 value) is recorded as 3 to 4 fold. Moreover, the IC50 (in general, the point on the concentration scale where inhibition reaches its midpoint) in experiment [3] (uptake of [3H]ASP+ (5 μM) in COS cells transfected with human OCT2, 20 min, 37° C.) was determined as 82 nM.

The values are drawn from patent US11414398B2, “Selective organic cation transporters inhibitors for the treatment of depressive disorders” (priority 2017, dated 2022).
